Earlier results as cited in US6043217A, “Amide derivative of amythiamicin” (Zaidan Hojin Biseibutsu Kagaku Kenyu Kai, priority 1996, dated 2000).

Conditions: background statement on known amythiamicins; cited from earlier work

| SMILES | solubility in water |
| --- | --- |
| CNC(=O)CC1NC(=O)c2csc(n2)-c2ccc(-c3nc(C4=NC(C(=O)N5CCCC5C(N)=O)CO4)cs3)nc2-c2csc(n2)-c2csc(n2)C(C(C)C)NC(=O)CNC(=O)c2csc(n2)C(C(C)C)NC(=O)c2nc1sc2C (centres unmarked) [Amythiamicin A] | hardly soluble in water |
| CNC(=O)CC1NC(=O)c2csc(n2)-c2ccc(-c3nc(C(=O)OCC4NC(=O)C5CCCN5C4=O)cs3)nc2-c2csc(n2)-c2csc(n2)C(C(C)C)NC(=O)CNC(=O)c2csc(n2)C(C(C)C)NC(=O)c2nc1sc2C (centres unmarked) [Amythiamicin C, amythiamicin C] | hardly soluble in water |
